How the values were obtained:
Experiment in all cases: relative viability vs DMSO control (72 h) (fraction); higher = more viable cells
SW684 = system: SW684
Procedure, shortened: (§1)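 Sarcoma cell lines were seeded in 384-well plates at densities chosen for 80–90% confluence, then 24 h later given 2.5 µl of serially diluted compound drawn from source plates spanning 10 mM to 0.0002 mM. They were held 72 h at 37 °C, 5% CO2, with 0.1% DMSO vehicle and a 5 µM positive control included. Relative viability was read with ATPLite as percent growth and averaged over up to triplicate wells. Rescaling placed full at 1 and none at 0.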

A204 = system: A204
Procedure, shortened: as §1

SK-ES-1 = system: SK-ES-1
Procedure, shortened: as §1

G401 = system: G401
Procedure, shortened: as §1

SK-LMS-1 = system: SK-LMS-1
Procedure, shortened: as §1

HS729 = system: HS729
Procedure, shortened: as §1

SW872 = system: SW872
Procedure, shortened: as §1

MES-SA = system: MES-SA
Procedure, shortened: as §1

SYO-1 = system: SYO-1
Procedure, shortened: as §1

SW1353 = system: SW1353
Procedure, shortened: as §1

SW982 = system: SW982
Procedure, shortened: as §1

KHOS-240S = system: KHOS-240S
Procedure, shortened: as §1

Cc1cc2c(F)c(Oc3ncnn4cc(OC[C@@H](C)O)c(C)c34)ccc2[nH]1 [Brivanib]
Settings | relative viability
A204, 0.00017 µM | 1.05
A204, 0.00051 µM | 1.035
A204, 0.00152 µM | 1.02
A204, 0.00457 µM | 1.07
A204, 0.01372 µM | 1.06
A204, 0.04115 µM | 1.03
A204, 0.1235 µM | 1.01
A204, 0.3704 µM | 1.01
A204, 1.111 µM | 0.987
A204, 3.333 µM | 0.95
A204, 10 µM | 0.642
G401, 0.00017 µM | 0.939
G401, 0.00051 µM | 0.989
G401, 0.00152 µM | 0.965
G401, 0.00457 µM | 0.921
G401, 0.01372 µM | 0.969
G401, 0.04115 µM | 0.979
G401, 0.1235 µM | 0.964
G401, 0.3704 µM | 0.99
G401, 1.111 µM | 0.979
G401, 3.333 µM | 0.955
G401, 10 µM | 0.922
HS729, 0.00017 µM | 0.93
HS729, 0.00051 µM | 0.949
HS729, 0.00152 µM | 0.955
HS729, 0.00457 µM | 0.943
HS729, 0.01372 µM | 0.929
HS729, 0.04115 µM | 0.912
HS729, 0.1235 µM | 0.925
HS729, 0.3704 µM | 0.964
HS729, 1.111 µM | 0.963
HS729, 3.333 µM | 0.921
HS729, 10 µM | 0.856
KHOS-240S, 0.00017 µM | 1.04
KHOS-240S, 0.00051 µM | 1.035
KHOS-240S, 0.00152 µM | 1.03
KHOS-240S, 0.00457 µM | 1.05
KHOS-240S, 0.01372 µM | 1.05
KHOS-240S, 0.04115 µM | 1.04
KHOS-240S, 0.1235 µM | 1.04
KHOS-240S, 0.3704 µM | 1.05
KHOS-240S, 1.111 µM | 1.03
KHOS-240S, 3.333 µM | 1.041
KHOS-240S, 10 µM | 0.961
MES-SA, 0.00017 µM | 0.897
MES-SA, 0.00051 µM | 0.908
MES-SA, 0.00152 µM | 0.8964
MES-SA, 0.00457 µM | 0.892
MES-SA, 0.01372 µM | 0.919
MES-SA, 0.04115 µM | 0.917
MES-SA, 0.1235 µM | 0.921
MES-SA, 0.3704 µM | 0.935
MES-SA, 1.111 µM | 0.934
MES-SA, 3.333 µM | 0.926
MES-SA, 10 µM | 0.636
SK-ES-1, 0.00017 µM | 1.04
SK-ES-1, 0.00051 µM | 1.04
SK-ES-1, 0.00152 µM | 1.07
SK-ES-1, 0.00457 µM | 1.07
SK-ES-1, 0.01372 µM | 1.02
SK-ES-1, 0.04115 µM | 1.05
SK-ES-1, 0.1235 µM | 1.04
SK-ES-1, 0.3704 µM | 0.997
SK-ES-1, 1.111 µM | 1.022
SK-ES-1, 3.333 µM | 1.06
SK-ES-1, 10 µM | 0.952
SK-LMS-1, 0.00017 µM | 1.03
SK-LMS-1, 0.00051 µM | 1.03
SK-LMS-1, 0.00152 µM | 1.02
SK-LMS-1, 0.00457 µM | 1.03
SK-LMS-1, 0.01372 µM | 1.02
SK-LMS-1, 0.04115 µM | 1.03
SK-LMS-1, 0.1235 µM | 1.06
SK-LMS-1, 0.3704 µM | 1.02
SK-LMS-1, 1.111 µM | 1.04
SK-LMS-1, 3.333 µM | 1.03
SK-LMS-1, 10 µM | 0.687
SW684, 0.00017 µM | 1.1
SW684, 0.00051 µM | 1.11
SW684, 0.00152 µM | 1.12
SW684, 0.00457 µM | 1.13
SW684, 0.01372 µM | 1.146
SW684, 0.04115 µM | 1.15
SW684, 0.1235 µM | 1.12
SW684, 0.3704 µM | 1.15
SW684, 1.111 µM | 1.12
SW684, 3.333 µM | 1.16
SW684, 10 µM | 1.21
SW872, 0.00017 µM | 0.989
SW872, 0.00051 µM | 0.999
SW872, 0.00152 µM | 0.996
SW872, 0.00457 µM | 1.04
SW872, 0.01372 µM | 1.009
SW872, 0.04115 µM | 1
SW872, 0.1235 µM | 1.03
SW872, 0.3704 µM | 1.05
SW872, 1.111 µM | 1.06
SW872, 3.333 µM | 1.056
SW872, 10 µM | 1.02
SW982, 0.00017 µM | 1.03
SW982, 0.00051 µM | 1.03
SW982, 0.00152 µM | 1.05
SW982, 0.00457 µM | 1.07
SW982, 0.01372 µM | 1.05
SW982, 0.04115 µM | 1.05
SW982, 0.1235 µM | 1.035
SW982, 0.3704 µM | 1.06
SW982, 1.111 µM | 1.034
SW982, 3.333 µM | 1.07
SW982, 10 µM | 1.06
SW1353, 0.00017 µM | 0.963
SW1353, 0.00051 µM | 0.991
SW1353, 0.00152 µM | 0.952
SW1353, 0.00457 µM | 0.96
SW1353, 0.01372 µM | 0.976
SW1353, 0.04115 µM | 0.935
SW1353, 0.1235 µM | 0.944
SW1353, 0.3704 µM | 1.01
SW1353, 1.111 µM | 0.982
SW1353, 3.333 µM | 1
SW1353, 10 µM | 0.997
SYO-1, 0.00017 µM | 0.941
SYO-1, 0.00051 µM | 0.936
SYO-1, 0.00152 µM | 0.931
SYO-1, 0.00457 µM | 0.935
SYO-1, 0.01372 µM | 0.919
SYO-1, 0.04115 µM | 0.925
SYO-1, 0.1235 µM | 0.921
SYO-1, 0.3704 µM | 0.906
SYO-1, 1.111 µM | 0.861
SYO-1, 3.333 µM | 0.792
SYO-1, 10 µM | 0.609

Source: the supplement of paper PMC10883282
